Patent publication US20220275372A1, “CONJUGATE AND USES THEREOF” (priority 2019, published 2022)

What was measured:
[1] = ELISA biodistribution of PMO in tissues of treated HSA-LR mice; type: in vivo, mouse; settings: for delivery of PMO to muscle: 2 weeks after IV administration
Experimental: Animal model and ASO injections. […] The intravenous injections in HSA-LR or C57BL/6 mice were performed by single or multiple administrations via the tail vein. […] Multiple injections were done at 2 weeks apart. Myotonia was evaluated and tissues were harvested 2 weeks after the last injection. For long-term experiments, tissues were harvested 3 months after the injection. For toxicology measurements, tissues were harvested after 1 week. Urine was tested by ELISAs (R&D cat# MKM100) with samples diluted to fit within standard curve. Values were normalised to urinary creatinine levels (Harwell) to account for urine protein concentration
ELISA based measurements of oligonucleotide concentrations in tissues. […] The probe was used to detect peptide-PMOs or naked PMO concentrations in eight different tissues (brain, kidney, liver, lung, heart, diaphragm, gastrocnemius and quadriceps) from treated HSA-LR mice.

[2] = system: WT mice; assay: Recovery time after injection, WT mice; type: in vivo, mouse; settings: 30 mg/kg, age 8-12 weeks
Experimental: (§1) Animal model and ASO injections. Experiments were carried out in the University of Oxford or in the “Centre d'études fonctionnelles” (Faculté de Médecine Sorbonne University) according to UK and French legislation respectively (Ethics committee approval #1760-2015091512001083v6). The intravenous injections in HSA-LR or C57BL/6 mice were performed by single or multiple administrations via the tail vein. Doses of 5, 7.5, 12.5, 30 or 40 mg/kg of peptide-PMO-CAG7 and 12.5 or 200 mg/kg of PMO were diluted in 0.9% saline and given at a volume of 5-6 μL/g of body weight. Multiple injections were done at 2 weeks apart. Myotonia was evaluated and tissues were harvested 2 weeks after the last injection. For long-term experiments, tissues were harvested 3 months after the injection. For toxicology measurements, tissues were harvested after 1 week. Urine was tested by ELISAs (R&D cat# MKM100) with samples diluted to fit within standard curve. Values were normalised to urinary creatinine levels (Harwell) to account for urine protein concentration

[3] = system: human myoblasts; assay: Cell viability in human myoblasts; type: cell-based; settings: 1-40 μM, 48 hours
Experimental: (§2) Cell culture and Peptide-PMO treatment. Immortalized myoblasts from healthy individual or DM1 patient with 2600 CTG repeats were cultivated in a growth medium consisting of a mix of M199:DMEM (1:4 ratio; Life technologies) supplemented with 20% FBS (Life technologies), 50 μg/ml gentamycin (Life technologies), 25 μg/ml fetuin, 0.5 ng/ml bFGF, 5 ng/ml EGF and 0.2 μg/ml dexamethasone (Sigma-Aldrich). Myogenic differentiation was induced by switching confluent cell cultures to DMEM medium supplemented with […] insulin (Sigma-Aldrich) for myoblasts. For treatment, WT or DM1 cells are differentiated for 4 days. Then, medium was changed with fresh differentiation medium with peptide-PMO conjugates at a 1, 2 ,5 10, 20 or 40 μM concentration. Cells were harvested for analysis 48 h after treatment. Cell viability was quantified in after 2 days of transfection of peptide-PMOs at 40 uM in human hepatocytes or at a 1, 2 ,5 10, 20 or 40 μM concentration in human myoblasts using a fluorescent-based assay (Promega).

[4] = system: mice; assay: Mortality in mice; settings: mouse, in vivo
[5] = system: human hepatocytes; assay: Cell viability in human hepatocytes; type: cell-based; settings: 40 μM
Experimental: as §2

[6] = system: Mbnl-dependent transcripts (Clcn1 exon 7a, Serca exon22, Mbnl1 exon 5, Ldb3 exon11); assay: RT-PCR splicing correction in muscle of HSA-LR mice; type: in vivo, mouse; settings: for splicing defects (clcn1 exon 7a, serca exon22, mbnl1 exon 5): 30 mg/kg IV, gastrocnemius and quadriceps of HSA-LR mice, two weeks after treatment; for splicing of Clcn1 exon 7a, Serca exon22, Mbnl1 exon 5 and Ldb3 exon11: 30 and 40 mg/kg, gastrocnemius of HSA-LR mice; for duration of splicing correction after treatment / splicing correction after single low doses: HSA-LR mice; for splicing correction after single low doses: single low doses (5 and 7.5 mg/kg)
Experimental: as §1
RNA isolation, RT-PCR and qPCR analysis. For mice tissues: prior to RNA extraction, muscles were disrupted in TriReagent (Sigma-Aldrich) using Fastprep system and Lysing Matrix D tubes (MP biomedicals). For human cells: prior to RNA extraction, cells were lysed in a proteinase K buffer (500 mM NaCl, 10 mM Tris-HCl, pH 7.2, 1.5 mM MgCl2, 10 mM EDTA, 2% SDS and 0.5 mg/ml of proteinase K) for 45 min at 55° C. Total RNAs were isolated using TriReagent according to the manufacturer's protocol. One microgram of RNA was reverse transcribed using M-MLV first-strand synthesis system (Life Technologies) according to the manufacturer's instructions in a total of 20 μL. One microliter of cDNA preparation was subsequently used in a semi-quantitative PCR analysis according to standard protocol (ReddyMix, Thermo Scientific).
PCR amplification was carried out for 25-35 cycles within the linear range of amplification for each gene. PCR products were resolved on 1.5-2% agarose gels, ethidium bromide-stained and quantified with ImageJ software. The ratios of exon inclusion were quantified as a percentage of inclusion relative to total intensity of isoform signals. To quantify the mRNA expression, real-time PCR was performed according to the manufacturer's instructions. PCR cycles were a 15-min denaturation step followed by 50 cycles with a 94° C. denaturation for 15 s, 58° C. annealing for 20 s and 72° C. extension for 20 s.

[7] = 600 mg/kg (3 injections at 200 mg/kg) IV, 2 weeks post administration

Substance: CAGCAGCAGCAGCAGCAGCAG (all phosphorodiamidate morpholino (PMO); Cell-penetrating peptide conjugated to the 3' end in the conjugates, further chemistry not fully specified) [Naked PMO]
- pM in Tissue: Diaphragm [1, 7]: 30 pM
- pM in Tissue: Gastrocnemius [1, 7]: 18 pM
- pM in Tissue: Heart [1, 7]: 198 pM
- pM in Tissue: Kidney [1, 7]: 426748 pM
- pM in Tissue: Liver [1, 7]: 252 pM
- pM in Tissue: Lung [1, 7]: 113 pM
- PMO levels in all tissues tested ([1]; 3 injections at 200 mg/kg, 2 weeks post administration): low to non-detectable levels
- PMO detected in muscle tissues ([1]; two weeks after 3x200 mg/kg naked PMO IV): low pM

Substance: Ac-RBRRBRFQILYBRBR-E [DPEP1.9b]
- delivery of PMO to muscle [1]: able to deliver the PMO to muscle successfully
- recovery time after injection, time AV ± SD [2]: 15 min

Substance: Ac-RXRRBRRXR-YQFLI-RXRBRXR-B [pip6a]
- cell viability of human myoblasts [3]: induced cell mortality at lower doses
- dose that cannot be tested without causing high rates of mortality in mice [4]: > 20 mg/kg
- cell mortality in human hepatocytes [5]: > 50%

Substance: Ac-RXRRBRR-FQILY-RBRXR-B [Pip9b2-PMO]
- cell viability of human myoblasts [3]: induced cell mortality at lower doses
- cell mortality in human hepatocytes [5]: > 50%

Substance: Ac-RBRRBRFQILYBRBR-B [DPEP1.9]
- delivery of PMO to muscle [1]: able to deliver the PMO to muscle successfully
- splicing defects (clcn1 exon 7a, serca exon22, mbnl1 exon 5) [6]: corrected to wild type levels
- splicing of Clcn1 exon 7a, Serca exon22, Mbnl1 exon 5 and Ldb3 exon11 [6]: splicing normalization to wild type levels
- duration of splicing correction after treatment [6]: at least 3 months
- splicing correction after single low doses [6]: significant

Substance: Ac-RBRRBRFQILYRBHBH-B [DPEP3.8]
- splicing defects (clcn1 exon 7a, serca exon22, mbnl1 exon 5) [6]: corrected to wild type levels
- splicing of Clcn1 exon 7a, Serca exon22, Mbnl1 exon 5 and Ldb3 exon11 [6]: splicing normalization to wild type levels
- duration of splicing correction after treatment [6]: at least 3 months
- splicing correction after single low doses [6]: significant

Substance: Ac-RBRRBRRFQILYRBHBH-Ab [DPEP3.1a]
- recovery time after injection, time AV ± SD [2]: 10 min
